# Results from EPA's ToxValDB 9.5 (doi:10.2903/j.efsa.2006.86r).
# Experiments:
# Apis mellifera = conditions: acute, mortality
# Canidae = conditions: chronic; duration: 1 years; oral; Dog Other; clinical chemistry
# Coturnix japonica = conditions: acute; oral; mortality
# Daphnia magna = conditions: chronic/long-term; duration: 21 days
# Aphidius rhopalosiphi = assay: LR50; higher = less toxic; conditions: acute; duration: 48 hours; reproduction
# Typhlodromus pyri = assay: LR50; higher = less toxic; conditions: acute; duration: 48 hours; reproduction
smiles,measurement,setting,value
CCS(=O)CCSP(=O)(OC)OC (stereo unspecified) [Oxydemeton-methyl],NOEC,Anas platyrhynchos; reproductive,7.65 mg/kg-day
same,NOEL,"Anas platyrhynchos; short-term, oral, feed, mortality",119 mg/kg-day
same,LD50,"Apis mellifera; duration: 48 hours, oral, unspecified",0.2 µg/piece
same,LD50,"Apis mellifera; duration: 72 hours, dermal",0.175 µg/piece
same,NOAEL,Canidae,0.1 mg/kg-day
same,LD50,"Colinus virginianus; acute, oral, M, mortality",34 mg/kg
same,NOEC,Colinus virginianus; reproduction developmental,0.97 mg/kg-day
same,NOEL,"Colinus virginianus; short-term, oral, diet, mortality",56.6 mg/kg-day
same,LD50,Coturnix japonica,29 mg/kg
same,NOEC,Daphnia magna,0.027 mg/L
same,LC50,"Oncorhynchus mykiss; acute, duration: 96 hours, mortality",17 µg/mL
same,NOEC,"Oncorhynchus mykiss; chronic/long-term, duration: 98 days",1.8 mg/L
same,LD50,"Rattus norvegicus; acute, oral, mortality",48 mg/kg
same,NOAEL,"Rattus norvegicus; chronic, duration: 2 years, clinical chemistry",0.03 mg/kg-day
same,NOAEL,"Rattus norvegicus; reproduction developmental, M, reproduction",0.15 mg/kg-day
same,NOAEL,"Rattus norvegicus; short-term, duration: 14 days, oral, clinical chemistry",0.15 mg/kg-day
same,NOAEL,"Rattus norvegicus; subchronic, duration: 90 days, oral, clinical chemistry",0.1 mg/kg-day
same,LC50,"Tagia sp.; acute, duration: 14 days, mortality",115 mg/kg
same,NOEC,"Tagia sp.; chronic/long-term, duration: 56 days, reproduction",412 g/ha
same,LR50,Aphidius rhopalosiphi,42.5 g/ha
same,LR50,Typhlodromus pyri,143 g/ha
